From ChEMBL document CHEMBL1201862, “PubChem BioAssay data set” (2004)
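Assay format: 96-well plates, 48-hour exposure. At the GI50, growth is halved.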 Activity calls are given as the source filed them. No stated cut-off is given here; in the data, active = GI50 up to about 1.1 µM and inactive = higher.

Key:
Assay in all cases: growth of human tumour cells (NCI), 48 h
MCF7 = test system: MCF7
HCC 2998 = test system: HCC 2998
SK-OV-3 = test system: SK-OV-3
DU-145 = test system: DU-145
PC-3 = test system: PC-3
NCI/ADR-RES = test system: NCI/ADR-RES
Hs-578T = test system: Hs-578T
MDA-MB-435 = test system: MDA-MB-435
T47D = test system: T47D
MDA-MB-231 = test system: MDA-MB-231
EKVX = test system: EKVX
786-0 = test system: 786-0
CAKI-1 = test system: CAKI-1
SNB-75 = test system: SNB-75
M14 = test system: M14
RXF 393 = test system: RXF 393
MDA-N = test system: MDA-N
BT-549 = test system: BT-549
RPMI-8226 = test system: RPMI-8226

Compound | GI50 (MCF7) | GI50 (HCC 2998) | GI50 (SK-OV-3) | GI50 (DU-145) | GI50 (PC-3) | GI50 (NCI/ADR-RES) | GI50 (Hs-578T) | GI50 (MDA-MB-435) | GI50 (T47D) | GI50 (MDA-MB-231) | GI50 (EKVX) | GI50 (786-0) | GI50 (CAKI-1) | GI50 (SNB-75) | GI50 (M14) | GI50 (RXF 393) | GI50 (MDA-N) | GI50 (BT-549) | GI50 (RPMI-8226)
O=C(Nc1ccc(F)cc1)c1cc2c(cc1Cl)Sc1nccn1S2(=O)=O | 77.8 µM (inactive) | > 100 µM (inactive) | 94.6 µM (inactive) | > 100 µM (inactive) | 90.6 µM (inactive) | > 100 µM (inactive) | 30.8 µM (inactive) | 59.4 µM (inactive) | 45.9 µM (inactive) | 38.2 µM (inactive) | > 100 µM (inactive) | 28.2 µM (inactive) | 30.7 µM (inactive) | 17.8 µM (inactive) | > 100 µM (inactive) | 31.7 µM (inactive) | > 100 µM (inactive) |  | 
COc1ccc2c(c1)C(=O)CC(C(N)=O)C2 (configuration not stated) | > 100 µM (inactive) | > 100 µM (inactive) | > 100 µM (inactive) | > 100 µM (inactive) | > 100 µM (inactive) | > 100 µM (inactive) | > 100 µM (inactive) | > 100 µM (inactive) | > 100 µM (inactive) | > 100 µM (inactive) | > 100 µM (inactive) | > 100 µM (inactive) | > 100 µM (inactive) | 53.1 µM (inactive) | > 100 µM (inactive) | > 100 µM (inactive) |  | > 100 µM (inactive) | > 100 µM (inactive)
CCC(CC)C(=O)OC[n+]1ccc(-c2c(COC(=O)NC(C)C)c(COC(=O)NC(C)C)c3n2CCC3)cc1 | > 100 µM (inactive) | > 100 µM (inactive) | > 100 µM (inactive) |  | > 100 µM (inactive) | > 100 µM (inactive) | > 100 µM (inactive) |  |  | > 100 µM (inactive) | > 100 µM (inactive) | > 100 µM (inactive) | > 100 µM (inactive) |  | > 100 µM (inactive) | > 100 µM (inactive) | > 100 µM (inactive) | > 100 µM (inactive) | > 100 µM (inactive)
O=C(c1ccc2ccccc2c1O)N1CCCCC1 | > 100 µM (inactive) | > 100 µM (inactive) | > 100 µM (inactive) | > 100 µM (inactive) | > 100 µM (inactive) | 39 µM (inactive) | > 100 µM (inactive) | > 100 µM (inactive) | 71.3 µM (inactive) | > 100 µM (inactive) | 61.4 µM (inactive) | > 100 µM (inactive) | > 100 µM (inactive) | > 100 µM (inactive) | > 100 µM (inactive) | > 100 µM (inactive) |  |  | 27.4 µM (inactive)
C/C(Cl)=N\OC(=O)Nc1ccccc1C(F)(F)F | 14.9 µM (inactive) | > 100 µM (inactive) | > 100 µM (inactive) | > 100 µM (inactive) | > 100 µM (inactive) | 19.3 µM (inactive) | > 100 µM (inactive) |  | 80.2 µM (inactive) | 22.6 µM (inactive) | 19.9 µM (inactive) | 17.9 µM (inactive) | > 100 µM (inactive) | 20.9 µM (inactive) |  |  | 16.4 µM (inactive) |  | 21 µM (inactive)
O=C(C/C=C/c1ccccc1)c1ccccc1 | 15 µM (inactive) | 18.3 µM (inactive) | 49.5 µM (inactive) | 16 µM (inactive) |  | 15.3 µM (inactive) | 21.8 µM (inactive) | 18 µM (inactive) | 16.9 µM (inactive) |  | 35.5 µM (inactive) | 21.6 µM (inactive) | 17 µM (inactive) | 20.6 µM (inactive) | 16.2 µM (inactive) | 15.8 µM (inactive) | 19.8 µM (inactive) |  | 28.2 µM (inactive)
O=C1c2cc3c(cc2CC12Cc1cc4c(cc1C2)CCC4)CCC3 | > 100 µM (inactive) | > 100 µM (inactive) | > 100 µM (inactive) | > 100 µM (inactive) | > 100 µM (inactive) | > 100 µM (inactive) | > 100 µM (inactive) | > 100 µM (inactive) | > 100 µM (inactive) | > 100 µM (inactive) | > 100 µM (inactive) | > 100 µM (inactive) | > 100 µM (inactive) | > 100 µM (inactive) | > 100 µM (inactive) | > 100 µM (inactive) | > 100 µM (inactive) |  | > 100 µM (inactive)
Cc1cc2c(cc1C(=O)CCC(=O)O)CC1(C2)Cc2cc(C)c(C(=O)CCC(=O)O)cc2C1 | > 100 µM (inactive) | > 100 µM (inactive) | > 100 µM (inactive) | > 100 µM (inactive) | > 100 µM (inactive) | > 100 µM (inactive) | > 100 µM (inactive) | > 100 µM (inactive) | > 100 µM (inactive) | > 100 µM (inactive) | > 100 µM (inactive) | > 100 µM (inactive) | > 100 µM (inactive) | 90.6 µM (inactive) | > 100 µM (inactive) | > 100 µM (inactive) | > 100 µM (inactive) |  | > 100 µM (inactive)
CC(=O)O/N=C/c1c2ccccc2cc2ccccc12 | 78.2 µM (inactive) |  | 22.2 µM (inactive) | > 100 µM (inactive) | > 100 µM (inactive) | 56.8 µM (inactive) | 67.1 µM (inactive) | 38 µM (inactive) | 81.7 µM (inactive) | 20.9 µM (inactive) | 27.5 µM (inactive) |  | 82.4 µM (inactive) | 22.1 µM (inactive) | > 100 µM (inactive) | 21.7 µM (inactive) |  |  | 51.6 µM (inactive)
CCOC(=O)c1csc(NC(=O)C(C)N2CCCC2)n1 (configuration not stated) | > 100 µM (inactive) | > 100 µM (inactive) | > 100 µM (inactive) | > 100 µM (inactive) | > 100 µM (inactive) |  |  | > 100 µM (inactive) | > 100 µM (inactive) | > 100 µM (inactive) |  |  | > 100 µM (inactive) | > 100 µM (inactive) | > 100 µM (inactive) | > 100 µM (inactive) | > 100 µM (inactive) |  | 19.3 µM (inactive)
CCOC(=O)CNC(=O)C(C)NC(=O)C(NC(=O)CC(c1ncc[nH]1)c1ncc[nH]1)C(C)CC (configuration not stated) | > 100 µM (inactive) | > 100 µM (inactive) | > 100 µM (inactive) | > 100 µM (inactive) |  | > 100 µM (inactive) | > 100 µM (inactive) | > 100 µM (inactive) | > 100 µM (inactive) | > 100 µM (inactive) | > 100 µM (inactive) | > 100 µM (inactive) | > 100 µM (inactive) | > 100 µM (inactive) | 84.9 µM (inactive) |  | > 100 µM (inactive) |  | > 100 µM (inactive)
CSc1nc(NCc2ccccc2)c2cnn(COCCO)c2n1 | 45.3 µM (inactive) |  | > 100 µM (inactive) | 64.3 µM (inactive) | 58.1 µM (inactive) | 53 µM (inactive) |  | 27.4 µM (inactive) | 53.7 µM (inactive) | 55.6 µM (inactive) | 21.4 µM (inactive) | > 100 µM (inactive) | 61.9 µM (inactive) | 0.152 µM (active) | 67.8 µM (inactive) | 29 µM (inactive) | 46.9 µM (inactive) | 35.7 µM (inactive) | 38.5 µM (inactive)
O=C(CCN1CCN2c3ccccc3CCC2C1)c1ccc(F)cc1 (configuration not stated) | 19.8 µM (inactive) |  | 68.2 µM (inactive) | 30.1 µM (inactive) | 42.8 µM (inactive) | 36 µM (inactive) | 35.6 µM (inactive) | 24 µM (inactive) | 20 µM (inactive) | 37.7 µM (inactive) | 27.5 µM (inactive) | 18.9 µM (inactive) | 23.3 µM (inactive) | 27.2 µM (inactive) | 49.7 µM (inactive) | 20.6 µM (inactive) |  | 25.1 µM (inactive) | 28.9 µM (inactive)
O=CN1CCN(c2ccc3ccc(O)nc3n2)CC1 | > 100 µM (inactive) | > 100 µM (inactive) | > 100 µM (inactive) | > 100 µM (inactive) | > 100 µM (inactive) | > 100 µM (inactive) | > 100 µM (inactive) | > 100 µM (inactive) |  | > 100 µM (inactive) | > 100 µM (inactive) | > 100 µM (inactive) | > 100 µM (inactive) | > 100 µM (inactive) | > 100 µM (inactive) |  | > 100 µM (inactive) | > 100 µM (inactive) | > 100 µM (inactive)
COc1ccc(/C=C2/SC(c3c(O)ccc4ccccc34)N(NC(=O)CCCCCCCCC(=O)NN3C(=O)/C(=C\c4ccc(OC)c(OC)c4)SC3c3c(O)ccc4ccccc34)C2=O)cc1OC (configuration not stated) | 1.71 µM (inactive) | 5.25 µM (inactive) | 2.24 µM (inactive) | 1.61 µM (inactive) | 1.48 µM (inactive) | 1.77 µM (inactive) |  | 11.3 µM (inactive) | 2.19 µM (inactive) |  | 2.12 µM (inactive) | 0.519 µM (active) | 1.22 µM (inactive) | 8.53 µM (inactive) | 0.897 µM (active) | 3.56 µM (inactive) | 12.8 µM (inactive) |  | 0.995 µM (active)
Cc1nc(C)c(C(=O)NNC(=O)C[N+](C)(C)C)cc1C(=O)NNC(=O)C[N+](C)(C)C | > 100 µM (inactive) | > 100 µM (inactive) | > 100 µM (inactive) | > 100 µM (inactive) |  | > 100 µM (inactive) |  | > 100 µM (inactive) | 74.1 µM (inactive) | > 100 µM (inactive) | > 100 µM (inactive) | > 100 µM (inactive) | > 100 µM (inactive) | > 100 µM (inactive) | > 100 µM (inactive) | > 100 µM (inactive) | > 100 µM (inactive) | > 100 µM (inactive) | 
CCC(C)[C@H]1C(=O)N=C(N)N1C(=O)OCc1ccccc1 (some centres not stated) | > 100 µM (inactive) | > 100 µM (inactive) |  | > 100 µM (inactive) | > 100 µM (inactive) | > 100 µM (inactive) |  | > 100 µM (inactive) |  | > 100 µM (inactive) | > 100 µM (inactive) | > 100 µM (inactive) | > 100 µM (inactive) | > 100 µM (inactive) |  | > 100 µM (inactive) | > 100 µM (inactive) | > 100 µM (inactive) | > 100 µM (inactive)
